Measured values as given in patent US7179819B2, “VLA-4 inhibitor compounds” (Daiichi Pharmaceutical Co., Ltd., priority 1999, dated 2007).
Counter-ions that a name gives are not always drawn.

melting point	SMILES
122 to 124 °C	Cc1cc(CC(=O)N2CCC[C@H]2COc2ccc(C(=O)O)cc2)ccc1NC(=O)Nc1ccccc1Cl [Compound 81, 4-[1-[4-[N′-(2-chlorophenyl)ureido]-3-methylphenylacetyl]-(2S)-pyrrolidinyl]methoxybenzoic acid]
161 to 164 °C	COc1cc(CC(=O)N2CCCC2C#Cc2ccc(C(=O)O)cc2)ccc1NC(=O)Nc1ccccc1C (centres unmarked) [Compound 14, 4-[2-[1-[3-methoxy-4-[N′-(2-methylphenyl)ureido]phenylacetyl]-2-pyrrolidinyl]ethynyl]benzoic acid]
125 to 133 °C	COc1cc(CC(=O)N2CSC[C@H]2COc2ccc(C(=O)O)cc2)ccc1NC(=O)Nc1ccccc1Br (stereo in doubt) [Compound 170, 4-[3-[4-[N′-(2-bromophenyl)ureido]-3-methoxyphenylacetyl]-4-thiazolidinyl]methoxybenzoic acid]
168 to 172 °C (dec.)	O=C(Nc1ccc(CC(=O)N2C[C@@H](F)C[C@H]2COc2ccc(C(=O)O)cc2)cc1)Nc1c(Cl)cccc1Cl [Compound 87, 4-[1-[4-[N′-(2,6-dichlorophenyl)ureido]phenylacetyl]-(4S)-fluoro-(2S)-pyrrolidinyl]methoxy benzoic acid]
165 to 168 °C	Cc1ccccc1NC(=O)Nc1ccc(CC(=O)N2CCCC2/C=C/c2ccc(C(=O)O)cc2)cc1 (centres unmarked) [Compound 6, (E)-4-[2-[1-[4-[N′-(2-methylphenyl)ureido]phenylacetyl]-2-pyrrolidinyl]ethenyl]benzoic acid]
123 to 126 °C	COc1cc(CC(=O)N2CCC[C@H]2COc2ccc(C(=O)O)cc2F)ccc1NC(=O)Nc1ccccc1C (stereo in doubt) [Compound 38, 3-fluoro-4-[[1-[3-methoxy-4-[N′-(2-methylphenyl)ureido]phenylacetyl]-2-pyrrolidinyl]methoxy]benzoic acid]
125 to 128 °C	COc1cc(CC(=O)N2C[C@@H](NS(C)(=O)=O)C[C@H]2COc2ccc(C(=O)O)cc2)ccc1NC(=O)Nc1ccccc1Br [Compound 164, 4-[4-methanesulfonamido-1-[4-[N′-(2-bromophenyl)ureido]-3-methoxyphenylacetyl]-(2S)-pyrrolidinyl]methoxybenzoic acid]
195 to 200 °C	COc1cc(CC(=O)N(C)CCOc2ccc(C(=O)O)cc2NC(C)C)ccc1NC(=O)Nc1ccccc1F [Compound 279, 3-isopropylamino-4-[[2-[3-methoxy-4-[N′-(2-fluorophenyl)ureido]phenylacetyl]methylamino]ethoxy]benzoic acid]
120 to 121 °C	COc1cc(CC(=O)N2C3CCCCC3C[C@H]2COC2CCC(C(=O)O)CC2)ccc1NC(=O)Nc1ccccc1Cl (stereo partly drawn) [Compound 178, cis-4-[1-[4-[N′-(2-chlorophenyl)ureido]-3-methoxylphenylacetyl]-(2S)-octahydroindolylmethoxy]cyclohexanecarboxylic acid]
190 to 193 °C	COc1cc(CC(=O)N2CC[C@H](Oc3ccc(C(=O)O)cc3)C2)ccc1NC(=O)Nc1ccccc1Cl [Compound 183, 4-[1-[4-[N′-(2-chlorophenyl)ureido]-3-methoxyphenylacetyl]-(3S)-pyrrolidinyloxy]benzoic acid]
122 to 125 °C	COc1cc(CC(=O)N2CCC[C@H]2COc2ncc(C(=O)O)cc2Cl)ccc1NC(=O)Nc1ccccc1C (stereo in doubt) [Compound 47, 3-chloro-2-[[1-[3-methoxy-4-[N′-(2-methylphenyl)ureido]phenylacetyl]-2-pyrrolidinyl]methoxy]pyridine-5-carboxylic acid]
126 to 129 °C	COc1cc(CC(=O)N2CSC[C@H]2COc2ccc(C(=O)O)cc2)ccc1NC(=O)Nc1ccccc1Cl (stereo in doubt) [Compound 169, 4-[3-[4-[N′-(2-chlorophenyl)ureido]-3-methoxyphenylacetyl]-4-thiazolidinyl]methoxybenzoic acid]
148 to 152 °C (dec.)	COc1cc(CC(=O)N2C[C@@H](O)C[C@H]2COc2ccc(C(=O)O)cc2)ccc1NC(=O)Nc1ccccc1C [Compound 106]
123 to 126 °C	Cc1cc(CC(=O)N2C[C@@H](F)C[C@H]2COc2ccc(C(=O)O)cc2)ccc1NC(=O)Nc1ccccc1C(F)(F)F [Compound 77, 4-[(4S)-fluoro-1-[3-methyl-4-[N′-(2-trifluoromethylphenyl)ureido]phenylacetyl]-(2S)-pyrrolidinylmethoxy]benzoic acid]
154 to 159 °C	COc1cc(CC(=O)N2C[C@@H](Oc3ccc(C(=O)O)cc3)C[C@H]2COc2ccc(C(=O)O)cc2)ccc1NC(=O)Nc1ccccc1C [Compound 116, 4-[(4S)-(4-carboxyphenoxy)-1-[3-methoxy-4-[N′-(2-methylphenyl)uriedo]phenylacetyl]-(2S)-pyrrolidinylmethoxy]benzoic acid]
158 to 162 °C	COc1cc(CC(=O)N2CC[C@@H](Oc3ccc(C(=O)O)cc3)C2)ccc1NC(=O)Nc1ccccc1C [Compound 185, 4-[1-[3-methoxy-4-[N′-(2-methylphenyl)ureido]phenylacetyl]-(3R)-pyrrolidinyloxy]benzoic acid]
125 to 130 °C	COc1cc(CC(=O)N(C)[C@@H](C)COc2ccc(C(=O)O)cc2Cl)ccc1NC(=O)Nc1ccccc1C [Compound 284]

Continued, compound first:

SMILES	melting point
COc1cc(CC(=O)N(C)CCNc2ccc(C(=O)O)cc2)ccc1NC(=O)Nc1ccccc1C [Compound 282, 4-[[2-[3-methoxy-4-[N′-(2-methylphenyl)ureido]phenylacetyl]methylamino]ethylamino]benzoic acid]	115 to 120 °C
COc1cc(CC(=O)N2CCC[C@H]2C(=O)NC2CCC(C(=O)O)CC2)ccc1NC(=O)Nc1ccccc1Cl (stereo in doubt) [Compound 181, 4-[[1-[4-[N′-(2-chlorophenyl)ureido]-3-methoxylphenylacetyl]-2-pyrrolidinyl]carbonylamino]cyclohexanecarboxylic acid]	135 to 140 °C
COc1cc(CC(=O)N2C[C@@H](NS(=O)(=O)c3cccc4c(N(C)C)cccc34)C[C@H]2COc2ccc(C(=O)O)cc2)ccc1NC(=O)Nc1ccccc1Br [Example 155, 4-[1-[4-[N′-(2-bromophenyl)ureido]-3-methoxyphenylacetyl]-4dansylamino-(2S)-pyrrolidinyl]methoxybenzoic acid]	138 to 141 °C
Cc1cc(CC(=O)N2C[C@@H](F)C[C@H]2COc2ccc(C(=O)O)cc2)ccc1NC(=O)Nc1c(Cl)cccc1Cl [Example 83, 4-[(2S, 4S)-1-[4-[N′-(2,6-Dichlorophenyl)ureido]-3-methylphenylacetyl]4-fluoro-2-pyrrolidinyl]methoxybenzoic acid]	174 to 180 °C (dec.)
Cc1cc(CC(=O)N2C[C@@H](F)C[C@H]2COc2ccc(C(=O)O)cc2)ccc1NC(=O)Nc1ccccc1 [Compound 73, 4-[(4S)-fluoro-1-[3-methyl-4-(N′-phenylureido)phenylacetyl]-(2S)-pyrrolidinylmethoxy]benzoic acid]	130 to 135 °C
COc1cc(CC(=O)N2CCCC2CN2CCN(CC(=O)O)CC2)ccc1NC(=O)Nc1ccccc1C (centres unmarked) (as salt: salt)	160 to 170 °C
COc1cc(CC(=O)N2CCC[C@H]2COc2ccc(C(=O)O)cn2)ccc1NC(=O)Nc1ccccc1C (stereo in doubt) [Compound 40, 2-[[1-[3-methoxy-4-[N′-(2-methylphenyl)ureido]phenylacetyl]-2-pyrrolidinyl]methoxy]pyridine-5-carboxylic acid]	125 to 128 °C
COc1cc(CC(=O)N2C[C@@H](Cl)C[C@H]2COc2ccc(C(=O)O)cc2)ccc1NC(=O)Nc1ccccc1Br [Compound 103, 4-[1-[4-[N′-(2-bromophenyl)ureido]-3-methoxyphenylacetyl]-(4S)-chloro-(2S)-pyrrolidinyl]methoxybenzoic acid]	127 to 132 °C
COc1cc(CC(=O)N2C[C@@H](Oc3ccc(C(=O)O)cc3)C[C@H]2COc2ccc(C(=O)O)cc2)ccc1NC(=O)Nc1ccccc1Cl [Compound 117, 4-[(4S)-(4-carboxyphenoxy)-1-[4-[N′-(2-chlorophenyl)uriedo]-3-methoxyphenylacetyl]-(2S)-pyrrolidinylmethoxy]benzoic acid]	150 to 153 °C
Cc1ccccc1NC(=O)Nc1ccc(CC(=O)N2CCC[C@H]2COc2ccc(C(=O)O)cc2)cc1C [Compound 83, 4-[1-[3-methyl-4-[N′-(2-methylphenyl)ureido]phenylacetyl]-(2S)-pyrrolidinylmethoxy]benzoic acid]	191 to 193 °C
Cc1ccccc1NC(=O)Nc1ccc(CC(=O)N2CCC[C@H]2COC2CCC(C(=O)O)CC2)cc1 (stereo partly drawn) [Compound 177, 4-[[1-[4-[N′-(2-methylphenyl)ureido]phenylacetyl]-(2S)-pyrrolidinyl]methoxy]cyclohexane carboxylic acid]	107 to 111 °C
COc1cc(CC(=O)N(C)CCOc2ccc(C(=O)O)cc2N)ccc1NC(=O)Nc1ccccc1F [Compound 292, 3-amino-4-[[2-[3-methoxy-4-[N′-(2-fluorophenyl)ureido]phenylacetyl]methylamino]ethoxy]benzoic acid]	125 to 130 °C
COc1cc(CC(=O)N2C[C@@H](F)C[C@H]2COc2ccc(C(=O)O)cc2)ccc1NC(=O)Nc1c(Cl)cccc1Cl [Compound 88, 4-[1-[4-[N′-(2,6-dichlorophenyl)ureido]-3-methoxyphenylacetyl]-(4S)-fluoro-(2S)-pyrrolindinyl]methoxybenzoic acid]	162 to 168 °C (dec.)
Cc1cc(CC(=O)N2CCC[C@H]2COc2ccc(C(=O)O)cc2)ccc1NC(=O)Nc1ccccc1Br [Compound 82, 4-[1-[4-[N′-(2-bromophenyl)ureido]-3-methylphenylacetyl]-(2S)-pyrrolidinyl]methoxybenzoic acid]	125 to 130 °C
COc1cc(CC(=O)N[C@@H](C)COc2ccc(C(=O)O)cc2N)ccc1NC(=O)Nc1ccccc1C [Compound 293, (S)-3-amino-4-[2-[3-methoxy-4-[N′-(2-methylphenyl)ureido]phenylacetylamino]-1-propoxy]benzoic acid]	200 to 204 °C
